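Grown in 96-well plates, cells were treated for 48 hours with each compound at five concentrations. Insufficient inhibition: endpoint recorded as highest concentration tested. GI50 = concentration required for 50% inhibition of growth.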 Active and inactive are the calls of the source. Rule as the data show it: active = GI50 up to about 1.1 µM and inactive = higher.
How the values were obtained:
Assay in all cases: growth of human tumour cells (NCI), 48 h
[1] = tested on: 786-0
[2] = tested on: A498
[3] = tested on: ACHN
[4] = tested on: BT-549
[5] = tested on: CAKI-1
[6] = tested on: CCRF-CEM
[7] = tested on: COLO 205
[8] = tested on: DU-145
[9] = tested on: EKVX
[10] = tested on: HCC 2998
[11] = tested on: HCT-116
[12] = tested on: HCT-15
[13] = tested on: HL-60
[14] = tested on: HOP-62
[15] = tested on: HOP-92
[16] = tested on: HT-29
[17] = tested on: Hs-578T
[18] = tested on: IGROV-1
[19] = tested on: K562
[20] = tested on: KM12
[21] = tested on: LOX IMVI
[22] = tested on: M14
[23] = tested on: MCF7
[24] = tested on: MDA-MB-231
[25] = tested on: MDA-MB-435
[26] = tested on: MDA-N
[27] = tested on: MOLT-4
[28] = tested on: Malme-3M
[29] = tested on: NCI-H226
[30] = tested on: NCI-H23
[31] = tested on: NCI-H460
[32] = tested on: NCI-H522
[33] = tested on: NCI/ADR-RES
[34] = tested on: OVCAR-3
[35] = tested on: OVCAR-4
[36] = tested on: OVCAR-5
[37] = tested on: OVCAR-8
[38] = tested on: PC-3
[39] = tested on: RPMI-8226
[40] = tested on: RXF 393
[41] = tested on: SF-268
[42] = tested on: SF-295
[43] = tested on: SF-539
[44] = tested on: SK-MEL-28
[45] = tested on: SK-MEL-2
[46] = tested on: SK-MEL-5
[47] = tested on: SK-OV-3
[48] = tested on: SN12C
[49] = tested on: SNB-19
[50] = tested on: SNB-75
[51] = tested on: SR
[52] = tested on: SW-620
[53] = tested on: T47D
[54] = tested on: TK-10
[55] = tested on: U-251
[56] = tested on: UACC-257
[57] = tested on: UACC-62
[58] = tested on: UO-31
[59] = tested on: A549

## C[C@@]12C[C@@H](c3ccccc3O1)N1CCCCSC1=N2
[1]
  GI50: > 100 µM (inactive)
[2]
  GI50: > 100 µM (inactive)
[3]
  GI50: > 100 µM (inactive)
[4]
  GI50: > 100 µM (inactive)
[5]
  GI50: > 100 µM (inactive)
[6]
  GI50: > 100 µM (inactive)
[7]
  GI50: > 100 µM (inactive)
[8]
  GI50: > 100 µM (inactive)
[9]
  GI50: > 100 µM (inactive)
[10]
  GI50: > 100 µM (inactive)
[11]
  GI50: > 100 µM (inactive)
[12]
  GI50: > 100 µM
[13]
  GI50: 3.46 µM (inactive)
[14]
  GI50: > 100 µM (inactive)
[15]
  GI50: > 100 µM (inactive)
[16]
  GI50: > 100 µM (inactive)
[17]
  GI50: > 100 µM (inactive)
[18]
  GI50: > 100 µM (inactive)
[19]
  GI50: > 100 µM (inactive)
[20]
  GI50: > 100 µM (inactive)
[21]
  GI50: > 100 µM (inactive)
[22]
  GI50: > 100 µM (inactive)
[23]
  GI50: > 100 µM (inactive)
[24]
  GI50: > 100 µM (inactive)
[25]
  GI50: > 100 µM (inactive)
[26]
  GI50: > 100 µM (inactive)
[27]
  GI50: > 100 µM (inactive)
[28]
  GI50: > 100 µM (inactive)
[29]
  GI50: > 100 µM (inactive)
[30]
  GI50: > 100 µM (inactive)
[31]
  GI50: > 100 µM (inactive)
[32]
  GI50: > 100 µM (inactive)
[33]
  GI50: > 100 µM (inactive)
[34]
  GI50: > 100 µM (inactive)
[35]
  GI50: > 100 µM (inactive)
[36]
  GI50: > 100 µM (inactive)
[37]
  GI50: > 100 µM (inactive)
[38]
  GI50: > 100 µM (inactive)
[39]
  GI50: > 100 µM (inactive)
[40]
  GI50: > 100 µM (inactive)
[41]
  GI50: > 100 µM (inactive)
[42]
  GI50: > 100 µM (inactive)
[43]
  GI50: > 100 µM (inactive)
[44]
  GI50: > 100 µM (inactive)
[45]
  GI50: > 100 µM (inactive)
[46]
  GI50: > 100 µM (inactive)
[47]
  GI50: > 100 µM (inactive)
[48]
  GI50: > 100 µM (inactive)
[49]
  GI50: > 100 µM (inactive)
[50]
  GI50: > 100 µM (inactive)
[51]
  GI50: > 100 µM (inactive)
[52]
  GI50: > 100 µM (inactive)
[53]
  GI50: > 100 µM (inactive)
[54]
  GI50: > 100 µM (inactive)
[55]
  GI50: > 100 µM (inactive)
[56]
  GI50: > 100 µM (inactive)
[57]
  GI50: > 100 µM (inactive)
[58]
  GI50: > 100 µM (inactive)

## Cc1cn(C2CC(O)C(Cn3nncc3Cn3ccc(=O)[nH]c3=O)O2)c(=O)[nH]c1=O (stereo not drawn)
[1]
  GI50: > 100 µM (inactive)
[2]
  GI50: > 100 µM (inactive)
[59]
  GI50: > 100 µM (inactive)
[3]
  GI50: > 100 µM (inactive)
[4]
  GI50: > 100 µM (inactive)
[5]
  GI50: > 100 µM (inactive)
[6]
  GI50: > 100 µM (inactive)
[7]
  GI50: > 100 µM (inactive)
[8]
  GI50: > 100 µM (inactive)
[9]
  GI50: > 100 µM (inactive)
[10]
  GI50: > 100 µM (inactive)
[11]
  GI50: > 100 µM (inactive)
[12]
  GI50: > 100 µM
[13]
  GI50: > 100 µM (inactive)
[14]
  GI50: > 100 µM (inactive)
[15]
  GI50: > 100 µM (inactive)
[16]
  GI50: > 100 µM (inactive)
[17]
  GI50: > 100 µM (inactive)
[18]
  GI50: > 100 µM (inactive)
[20]
  GI50: > 100 µM (inactive)
[21]
  GI50: > 100 µM (inactive)
[22]
  GI50: > 100 µM (inactive)
[23]
  GI50: > 100 µM (inactive)
[24]
  GI50: > 100 µM (inactive)
[25]
  GI50: > 100 µM (inactive)
[26]
  GI50: > 100 µM (inactive)
[27]
  GI50: > 100 µM (inactive)
[28]
  GI50: > 100 µM (inactive)
[29]
  GI50: > 100 µM (inactive)
[30]
  GI50: > 100 µM (inactive)
[32]
  GI50: > 100 µM (inactive)
[33]
  GI50: > 100 µM (inactive)
[34]
  GI50: > 100 µM (inactive)
[35]
  GI50: > 100 µM (inactive)
[36]
  GI50: > 100 µM (inactive)
[37]
  GI50: > 100 µM (inactive)
[38]
  GI50: > 100 µM (inactive)
[39]
  GI50: > 100 µM (inactive)
[40]
  GI50: > 100 µM (inactive)
[41]
  GI50: > 100 µM (inactive)
[42]
  GI50: > 100 µM (inactive)
[43]
  GI50: > 100 µM (inactive)
[44]
  GI50: > 100 µM (inactive)
[45]
  GI50: > 100 µM (inactive)
[46]
  GI50: > 100 µM (inactive)
[47]
  GI50: > 100 µM (inactive)
[48]
  GI50: > 100 µM (inactive)
[49]
  GI50: > 100 µM (inactive)
[50]
  GI50: > 100 µM (inactive)
[51]
  GI50: > 100 µM (inactive)
[52]
  GI50: > 100 µM (inactive)
[53]
  GI50: > 100 µM (inactive)
[54]
  GI50: > 100 µM (inactive)
[55]
  GI50: > 100 µM (inactive)
[56]
  GI50: > 100 µM (inactive)
[57]
  GI50: > 100 µM (inactive)
[58]
  GI50: > 100 µM (inactive)

## CCO[C@H]1O[C@@H]2OC3(C)CCC4[C@H](C)CCC([C@H]1C)[C@]42OO3 (stereo partly drawn)
[1]
  GI50: 57.5 µM (inactive)
[2]
  GI50: > 100 µM (inactive)
[59]
  GI50: 40.8 µM (inactive)
[3]
  GI50: 32.2 µM (inactive)
[4]
  GI50: > 100 µM (inactive)
[5]
  GI50: > 100 µM (inactive)
[6]
  GI50: 3.44 µM (inactive)
[7]
  GI50: 2.98 µM (inactive)
[8]
  GI50: > 100 µM (inactive)
[9]
  GI50: > 49.1 µM (inactive)
[10]
  GI50: 97.1 µM (inactive)
[11]
  GI50: 35.2 µM (inactive)
[12]
  GI50: 23.9 µM
[13]
  GI50: 0.159 µM (active)
[14]
  GI50: > 100 µM (inactive)
[15]
  GI50: > 100 µM (inactive)
[16]
  GI50: 61.2 µM (inactive)
[17]
  GI50: 29.9 µM (inactive)
[18]
  GI50: > 73.8 µM (inactive)
[19]
  GI50: 15.9 µM (inactive)
[20]
  GI50: > 53.2 µM (inactive)
[21]
  GI50: 24.2 µM (inactive)
[22]
  GI50: 53.5 µM (inactive)
[23]
  GI50: 19.4 µM (inactive)
[24]
  GI50: > 57 µM (inactive)
[25]
  GI50: 19.1 µM (inactive)
[26]
  GI50: 49.7 µM (inactive)
[27]
  GI50: 7.91 µM (inactive)
[28]
  GI50: 42.3 µM (inactive)
[29]
  GI50: > 100 µM (inactive)
[30]
  GI50: 32.1 µM (inactive)
[31]
  GI50: > 55 µM (inactive)
[32]
  GI50: 43.5 µM (inactive)
[33]
  GI50: 23 µM (inactive)
[34]
  GI50: 15.5 µM (inactive)
[35]
  GI50: 25.8 µM (inactive)
[36]
  GI50: > 30.2 µM (inactive)
[37]
  GI50: 0.881 µM (active)
[38]
  GI50: 0.729 µM (active)
[39]
  GI50: 3.3 µM (inactive)
[40]
  GI50: > 100 µM (inactive)
[41]
  GI50: > 100 µM (inactive)
[42]
  GI50: > 20.2 µM (inactive)
[43]
  GI50: > 84.7 µM (inactive)
[44]
  GI50: > 75.5 µM (inactive)
[45]
  GI50: > 100 µM (inactive)
[46]
  GI50: 16 µM (inactive)
[47]
  GI50: > 100 µM (inactive)
[48]
  GI50: 68.2 µM (inactive)
[49]
  GI50: > 100 µM (inactive)
[50]
  GI50: > 74.1 µM (inactive)
[51]
  GI50: 10.3 µM (inactive)
[52]
  GI50: > 44.9 µM (inactive)
[53]
  GI50: 7.11 µM (inactive)
[54]
  GI50: > 95.5 µM (inactive)
[55]
  GI50: 42.7 µM (inactive)
[57]
  GI50: > 67.1 µM (inactive)
[58]
  GI50: 15.4 µM (inactive)

Source: ChEMBL document CHEMBL1201862, “PubChem BioAssay data set” (2004)
